Assay results as given in ChEMBL document CHEMBL3751793, “Preparation of N-Phenyl-lactam Derivatives Capable of Stimulating Neurogenesis and Their Use in the Treatment of Neurological Disorders” (2015).

System: NSC
Experiment: Increase in cell proliferation of human NSC cells assessed as increase in ATP level after 4 days by CelltiterGlo assay
Type: functional

Structure (SMILES)	EC150 [nM]
COc1cc(N2CCC(c3cccc(Cl)c3)C2=O)ccc1-c1cn[nH]c1 (stereo not drawn)	65.9
COc1cccc(C2CCN(c3ccc(-c4cnco4)c(OC)c3)C2=O)c1 (stereo not drawn)	81.4
COc1cccc(C2CCN(c3ccc(-c4cn[nH]c4)c(OC)c3)C2=O)c1 (stereo not drawn)	29.9
COc1cc(N2CCN(Cc3cccc(OC(F)(F)F)c3)C2=O)ccc1-c1cn[nH]c1	9.2
COc1cccc(C2CCN(c3ccc(-c4ccncc4)cc3)C2=O)c1 (stereo not drawn)	15.5
COc1cc(N2CCN(Cc3ccccc3C(F)(F)F)C2=O)ccc1-c1ccncc1	35.1
COc1cc(N2CCC(c3ccccc3)C2=O)ccc1-c1cn[nH]c1 (stereo not drawn)	41.4
COc1cccc(CN2CCN(c3ccc(-c4cn[nH]c4)c(OC)c3)C2=O)c1	23.9
COc1cccc(CN2CCN(c3ccc(-c4cn[nH]c4)c(F)c3)C2=O)c1	15.7
COc1cc(N2CCN(Cc3cccc(F)c3)C2=O)ccc1-c1cn[nH]c1	47
CCOc1cccc(CN2CCN(c3ccc(-c4cn[nH]c4)c(OC)c3)C2=O)c1	73.9
COc1cc(N2CCN(Cc3cccc(C(F)(F)F)c3)C2=O)ccc1-c1cn[nH]c1	8.6
COc1cc(N2CCN(Cc3cccc(C)c3)C2=O)ccc1-c1ccncc1	29.8
COc1cc(N2CCN(Cc3ccncc3)C2=O)ccc1-c1cn[nH]c1	42
COc1cccc(C2CCN(c3ccc(-c4ccncc4)c(OC)c3)C2=O)c1 (stereo not drawn)	61.3
COc1cccc(CN2CCN(c3ccc(-c4cn[nH]c4)cc3F)C2=O)c1	41.6
O=C1C(c2ccc(F)cc2)CCN1c1ccc(-c2cn[nH]c2)cc1 (stereo not drawn)	41.7
COc1cc(N2CCC(c3cccc(F)c3)C2=O)ccc1-c1cn[nH]c1 (stereo not drawn)	77.6
